Measurements reported in ChEMBL document CHEMBL5506050, “Discovery of Oral AMP-Activated Protein Kinase Activators for Treating Hyperlipidemia” (J Med Chem, 2024).
The source made the active and inactive calls. No cut-off for these calls is given here.

Columns and labels:
[1] = Cmax in female Rhesus monkey at 70 mg/kg, po or 7 mg/kg, iv measured for 36 hrs by LC-tandem MS analysis; type: ADME, organism-based, Macaca mulatta; settings: in vivo
[2] = AUC (0 to t) in female Rhesus monkey at 70 mg/kg, po or 7 mg/kg, iv measured for 36 hrs by LC-tandem MS analysis; type: ADME, organism-based, Macaca mulatta; settings: in vivo
Mus musculus [3] = experiment: Downregulation of Dhcr7 mRNA level in liver of high-fat diet-fed C57BL/6 mouse model at 200 mg/kg, po for 4 weeks by GO analysis; type: functional, organism-based
[4] = target: AMP-activated protein kinase (AMPK) alpha-1/beta-1/gamma-1 (Homo sapiens) (UniProt P54619+Q9Y478+Q13131); experiment: Activation of AMPK alpha1/AMPKbeta1/AMPKgamma1 (unknown origin) using SAMS peptide as substrate assessed as relative enzyme activity at 10 uM incubated for 20 mins in presence of [gamma-32P]ATP by scintillation counter analysis; type: protein-complex assay; settings: filed as activator
AMP-activated protein kinase (AMPK) alpha-1/beta-1/gamma-1 (Homo sapiens), sequence (P54619 whole entry): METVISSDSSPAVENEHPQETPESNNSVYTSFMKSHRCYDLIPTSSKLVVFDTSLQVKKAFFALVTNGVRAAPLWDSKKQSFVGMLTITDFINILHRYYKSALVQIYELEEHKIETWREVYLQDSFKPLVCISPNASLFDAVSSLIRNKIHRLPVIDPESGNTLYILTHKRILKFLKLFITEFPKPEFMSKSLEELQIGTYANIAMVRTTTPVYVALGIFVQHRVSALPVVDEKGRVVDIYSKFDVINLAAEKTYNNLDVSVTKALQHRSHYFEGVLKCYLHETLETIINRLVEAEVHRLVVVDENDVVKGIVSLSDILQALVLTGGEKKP
AMP-activated protein kinase (AMPK) alpha-1/beta-1/gamma-1 (Homo sapiens), sequence (Q13131 whole entry partner): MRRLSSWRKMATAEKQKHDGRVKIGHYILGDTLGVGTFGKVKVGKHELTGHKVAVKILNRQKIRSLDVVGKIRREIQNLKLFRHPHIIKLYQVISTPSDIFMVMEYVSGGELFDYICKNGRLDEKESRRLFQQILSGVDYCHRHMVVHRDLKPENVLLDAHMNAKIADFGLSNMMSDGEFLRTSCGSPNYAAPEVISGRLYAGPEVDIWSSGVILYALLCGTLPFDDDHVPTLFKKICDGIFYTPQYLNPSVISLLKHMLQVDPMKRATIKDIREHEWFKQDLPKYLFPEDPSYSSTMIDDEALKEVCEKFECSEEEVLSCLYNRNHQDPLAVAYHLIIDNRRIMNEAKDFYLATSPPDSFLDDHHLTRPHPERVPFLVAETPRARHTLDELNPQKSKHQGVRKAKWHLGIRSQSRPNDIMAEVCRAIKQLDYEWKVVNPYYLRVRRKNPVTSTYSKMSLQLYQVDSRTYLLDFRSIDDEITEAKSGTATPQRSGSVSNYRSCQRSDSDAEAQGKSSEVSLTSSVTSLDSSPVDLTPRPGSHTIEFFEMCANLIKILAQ
AMP-activated protein kinase (AMPK) alpha-1/beta-1/gamma-1 (Homo sapiens), sequence (Q9Y478 2-270 partner limits assumed): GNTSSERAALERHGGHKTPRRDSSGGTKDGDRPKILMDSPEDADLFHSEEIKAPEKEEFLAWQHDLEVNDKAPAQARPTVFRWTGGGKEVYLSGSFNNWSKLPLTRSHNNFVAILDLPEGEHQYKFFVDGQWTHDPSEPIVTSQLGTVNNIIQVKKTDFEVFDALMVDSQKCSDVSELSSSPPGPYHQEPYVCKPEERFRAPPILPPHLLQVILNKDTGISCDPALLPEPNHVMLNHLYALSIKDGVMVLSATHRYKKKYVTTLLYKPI

Syrian golden hamster [5] = experiment: Effect on food uptake in high-fat diet-fed golden hamster at 50 to 200 mg/kg, po qd administered via gavage measured after 4 weeks; type: functional, organism-based; settings: Mesocricetus auratus, dose 50-200 mg/kg
Rhesus monkey [6] = experiment: Lipid lowering effect in Rhesus monkey assessed as decrease in serum LDL-C level at 35 mg/kg, NG qd measured after 21 days relative to control; type: functional, Macaca mulatta; design: scale not given: the % may be the effect or the level left; settings: time 21 day
Mus musculus [7] = experiment: Downregulation of Ccr2 mRNA level in liver of high-fat diet-fed C57BL/6 mouse model at 200 mg/kg, po for 4 weeks by GO analysis; type: functional, organism-based
[8] = target: AMP-activated protein kinase, AMPK (Homo sapiens) (UniProt P54646+O43741+P54619+Q9UGJ0+Q9Y478+Q13131+Q9UGI9); experiment: Activation of AMPK in human HepG2 cells assessed as decrease in intracellular lipid content at 10 uM incubated for 48 hrs by Oil Red O staining based analysis relative to control; type: cell-based; design: scale not given: the % may be the effect or the level left
Mus musculus [9] = experiment: Effect on Mvd mRNA level in liver of diet-induced obese C57BL/6 mouse model harboring AMPKalpha LS-/- at 200 mg/kg, po for 4 weeks by GO analysis; type: functional, organism-based
Syrian golden hamster [10] = experiment: Lipid lowering effect on high-fat diet-fed golden hamster assessed as decrease in AST level in liver at 50 to 200 mg/kg, po qd administered via gavage measured after 4 weeks; type: functional, organism-based; settings: Mesocricetus auratus, dose 50-200 mg/kg
Syrian golden hamster [11] = experiment: Effect on body weight gain in high-fat diet-fed golden hamster at 50 to 200 mg/kg, po qd administered via gavage measured after 4 weeks; type: functional, organism-based; settings: Mesocricetus auratus, dose 50-200 mg/kg
Mus musculus [12] = experiment: Effect on Ptafr mRNA level in liver of diet-induced obese C57BL/6 mouse model harboring AMPKalpha LS-/- at 200 mg/kg, po for 4 weeks by GO analysis; type: functional, organism-based
Rhesus monkey [13] = experiment: Lipid lowering effect in Rhesus monkey assessed as decrease in serum LDL-C level at 35 mg/kg, NG qd treated for 35 days followed by drug washout for 14 days relative to control; type: functional, Macaca mulatta; design: scale not given: the % may be the effect or the level left; settings: time 35 day
Mus musculus [14] = experiment: Effect on Dhcr7 mRNA level in liver of diet-induced obese C57BL/6 mouse model harboring AMPKalpha LS-/- at 200 mg/kg, po for 4 weeks by GO analysis; type: functional, organism-based
Mus musculus [15] = experiment: Downregulation of Pcsk9 mRNA level in liver of high-fat diet-fed C57BL/6 mouse model at 200 mg/kg, po for 4 weeks by GO analysis; type: functional, organism-based
Rhesus monkey [16] = experiment: Lipid lowering effect in Rhesus monkey assessed as decrease in serum LDL-C level at 35 mg/kg, NG qd measured after 7 days; type: functional, organism-based; settings: Macaca mulatta, time 7.0 day
Mus musculus [17] = experiment: Effect on Ccr2 mRNA level in liver of diet-induced obese C57BL/6 mouse model harboring AMPKalpha LS-/- at 200 mg/kg, po for 4 weeks by GO analysis; type: functional, organism-based
Syrian golden hamster [18] = experiment: Lipid lowering effect on high-fat diet-fed golden hamster assessed as decrease in serum LDL-C level at 100 mg/kg, po qd administered via gavage measured after 4 weeks relative to control; type: functional, Mesocricetus auratus; design: scale not given: the % may be the effect or the level left
Syrian golden hamster [19] = experiment: Lipid lowering effect on high-fat diet-fed golden hamster assessed as decrease in serum TC level administered orally once daily via gavage measured after 4 weeks; type: functional, organism-based; settings: Mesocricetus auratus, dose 50-200 mg/kg, route po
Syrian golden hamster [20] = experiment: Lipid lowering effect on high-fat diet-fed golden hamster assessed as decrease in TC level in liver at 100 to 200 mg/kg, po qd administered via gavage measured after 4 weeks; type: functional, organism-based; settings: Mesocricetus auratus, dose 100-200 mg/kg
Mus musculus [21] = experiment: Downregulation of Ccl2 mRNA level in liver of high-fat diet-fed C57BL/6 mouse model at 200 mg/kg, po for 4 weeks by GO analysis; type: functional, organism-based
Mus musculus [22] = experiment: Lipid lowering effect on high-fat diet-fed C57BL/6J mouse assessed as decrease in serum LDL-C level at 20 mg/kg/day, po administered via gavage measured after 7 days relative to control; type: functional; design: scale not given: the % may be the effect or the level left; settings: time 7 day
Mus musculus [23] = experiment: Effect on Cidea mRNA level in liver of diet-induced obese C57BL/6 mouse model harboring AMPKalpha LS-/- at 200 mg/kg, po for 4 weeks by GO analysis; type: functional, organism-based
[24] = Stability in human plasma assessed as compound remaining at 1 to 5 uM measured after 30 mins by LC-MS/MS analysis; type: ADME, cell-free; settings: dose 1-5 µM, read-out: Stability
[25] = Stability in human liver microsomes assessed as hepatic clearance at 1 uM measured for 60 mins in presence of NADPH by LC-MS/MS analysis; type: ADME, Microsome
[26] = Half life in male Rhesus monkey at 70 mg/kg, po or 7 mg/kg, iv measured for 36 hrs by LC-tandem MS analysis; type: ADME, organism-based, Macaca mulatta; settings: in vivo
[27] = Half life in female Rhesus monkey at 70 mg/kg, po or 7 mg/kg, iv measured for 36 hrs by LC-tandem MS analysis; type: ADME, organism-based, Macaca mulatta; settings: in vivo
[28] = target: Voltage-gated inwardly rectifying potassium channel KCNH2 (Homo sapiens, UniProt Q12809); experiment: Inhibition of hERG; type: toxicity
Voltage-gated inwardly rectifying potassium channel KCNH2, sequence (Q12809 whole entry): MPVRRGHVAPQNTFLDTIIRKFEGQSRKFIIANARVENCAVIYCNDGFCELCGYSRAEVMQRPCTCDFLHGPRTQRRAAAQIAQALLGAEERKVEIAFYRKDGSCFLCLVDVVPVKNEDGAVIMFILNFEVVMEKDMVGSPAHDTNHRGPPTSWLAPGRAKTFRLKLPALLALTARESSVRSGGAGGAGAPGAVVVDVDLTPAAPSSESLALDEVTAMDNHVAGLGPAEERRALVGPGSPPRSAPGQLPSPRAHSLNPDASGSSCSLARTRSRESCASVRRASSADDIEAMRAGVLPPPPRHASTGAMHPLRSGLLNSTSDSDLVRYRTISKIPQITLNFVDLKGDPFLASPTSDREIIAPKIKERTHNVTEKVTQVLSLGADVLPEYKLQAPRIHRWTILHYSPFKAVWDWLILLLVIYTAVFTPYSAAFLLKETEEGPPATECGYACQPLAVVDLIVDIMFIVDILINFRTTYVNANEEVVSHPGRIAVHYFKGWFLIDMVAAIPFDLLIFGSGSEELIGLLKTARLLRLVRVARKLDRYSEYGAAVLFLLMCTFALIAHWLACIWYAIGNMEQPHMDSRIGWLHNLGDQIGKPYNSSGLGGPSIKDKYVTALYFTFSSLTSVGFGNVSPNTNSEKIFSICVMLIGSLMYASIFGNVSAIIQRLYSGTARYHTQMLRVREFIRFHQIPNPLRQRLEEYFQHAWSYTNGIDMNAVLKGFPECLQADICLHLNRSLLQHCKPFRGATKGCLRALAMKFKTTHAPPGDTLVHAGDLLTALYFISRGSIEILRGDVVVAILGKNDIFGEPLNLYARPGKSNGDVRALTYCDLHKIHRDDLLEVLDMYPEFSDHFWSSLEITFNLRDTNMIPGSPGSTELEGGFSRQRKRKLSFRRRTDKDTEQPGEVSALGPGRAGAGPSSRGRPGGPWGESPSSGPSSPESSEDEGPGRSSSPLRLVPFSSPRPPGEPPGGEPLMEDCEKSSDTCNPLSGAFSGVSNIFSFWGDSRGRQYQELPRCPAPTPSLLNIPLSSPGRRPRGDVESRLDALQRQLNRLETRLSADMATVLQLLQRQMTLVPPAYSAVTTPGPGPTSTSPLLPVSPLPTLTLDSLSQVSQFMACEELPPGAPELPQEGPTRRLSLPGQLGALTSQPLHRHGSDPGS

Mus musculus [29] = experiment: Lipid lowering effect on high-fat diet-fed C57BL/6J mouse assessed as decrease in serum LDL-C level at 40 mg/kg/day, po administered via gavage measured after 7 days relative to control; type: functional; design: scale not given: the % may be the effect or the level left; settings: time 7 day
Mus musculus [30] = experiment: Effect on Lepr mRNA level in liver of diet-induced obese C57BL/6 mouse model harboring AMPKalpha LS-/- at 200 mg/kg, po for 4 weeks by GO analysis; type: functional, organism-based
[31] = Stability in human Caco-2 cells assessed as compound remaining at 10 ug/ml measured after 1 hr by LC-MS/MS analysis; type: ADME, cell-based; settings: at 10 µg/mL, read-out: Stability
Rhesus monkey [32] = experiment: Lipid lowering effect in Rhesus monkey assessed as LDL-C level at 35 mg/kg, NG qd treated for 35 days followed by drug washout for 14 days; type: functional, Macaca mulatta; settings: time 35 day
Mus musculus [33] = experiment: Effect on Dnajb9 mRNA level in liver of diet-induced obese C57BL/6 mouse model harboring AMPKalpha LS-/- at 200 mg/kg, po for 4 weeks by GO analysis; type: functional, organism-based
[34] = Tmax in female Rhesus monkey at 70 mg/kg, po or 7 mg/kg, iv measured for 36 hrs by LC-tandem MS analysis; type: ADME, organism-based, Macaca mulatta; settings: in vivo

Q: What does the source list for `CC(=O)OC[C@H]1O[C@@H](n2cnc3c(Nc4cccc(O)c4)ncnc32)[C@H](OC(C)=O)[C@@H]1OC(C)=O`?
A: Cmax [1]: 25.9 ng/mL; AUC(0-t) at 36 h [2]: 102 ng·h/mL; Activity (Mus musculus [3]): Active; Activity [4]: 2.31; Activity (Syrian golden hamster [5]): inactive; Activity (Rhesus monkey [6]): 23.69%; Activity (Mus musculus [7]): Active; Activity [8]: 64%; Activity (Mus musculus [9]): inactive; Activity (Syrian golden hamster [10]): Active; Activity (Syrian golden hamster [11]): inactive; Activity (Mus musculus [12]): inactive; Activity (Rhesus monkey [13]): 4.83%; Activity (Mus musculus [14]): inactive; Activity (Mus musculus [15]): Active; Activity (Rhesus monkey [16]): Active; Activity (Mus musculus [17]): inactive; Activity (Syrian golden hamster [18]): 36.2%; Activity (Syrian golden hamster [19]): Dose-Dependent Effect; Activity (Syrian golden hamster [20]): Active; Activity (Mus musculus [21]): Active; Activity (Mus musculus [22]): 22.2%; Activity (Mus musculus [23]): inactive; remaining at 0.5 h, up to 5 µM [24]: ~70%; CLhep predicted at 1 µM [25]: 19.9 mL/min/kg; half-life [26]: 5.4 h; half-life [27]: 4.15 h; IC50 [28]: > 30 µM; Activity (Mus musculus [29]): 32.6%; Activity (Mus musculus [30]): inactive; remaining at 1 h, 10 ug/ml [31]: 77%; Activity (Rhesus monkey [32]): 1.25 mmol/L; Activity (Mus musculus [33]): inactive; Tmax [34]: 2.25 h
